Key:
[1] = human absorption data, from Ertl et al., J. Med. Chem. 2000; cited from earlier work
rat NaP2b (SLC34A2) = target: T1, rat NaP2b (SLC34A2) (Rattus norvegicus, UniProt Q9JJ09); test: NaP2b-mediated Pi transport: 33P phosphate uptake into transfected HEK293 cells; format: cell-based; details: 100 uM KH2PO4, PiT-silencing agent, read-out: pIC50 range for rat Nap2b (converted)
T1 construct: host or cells: HEK293
T1 sequence (Q9JJ09 1-695): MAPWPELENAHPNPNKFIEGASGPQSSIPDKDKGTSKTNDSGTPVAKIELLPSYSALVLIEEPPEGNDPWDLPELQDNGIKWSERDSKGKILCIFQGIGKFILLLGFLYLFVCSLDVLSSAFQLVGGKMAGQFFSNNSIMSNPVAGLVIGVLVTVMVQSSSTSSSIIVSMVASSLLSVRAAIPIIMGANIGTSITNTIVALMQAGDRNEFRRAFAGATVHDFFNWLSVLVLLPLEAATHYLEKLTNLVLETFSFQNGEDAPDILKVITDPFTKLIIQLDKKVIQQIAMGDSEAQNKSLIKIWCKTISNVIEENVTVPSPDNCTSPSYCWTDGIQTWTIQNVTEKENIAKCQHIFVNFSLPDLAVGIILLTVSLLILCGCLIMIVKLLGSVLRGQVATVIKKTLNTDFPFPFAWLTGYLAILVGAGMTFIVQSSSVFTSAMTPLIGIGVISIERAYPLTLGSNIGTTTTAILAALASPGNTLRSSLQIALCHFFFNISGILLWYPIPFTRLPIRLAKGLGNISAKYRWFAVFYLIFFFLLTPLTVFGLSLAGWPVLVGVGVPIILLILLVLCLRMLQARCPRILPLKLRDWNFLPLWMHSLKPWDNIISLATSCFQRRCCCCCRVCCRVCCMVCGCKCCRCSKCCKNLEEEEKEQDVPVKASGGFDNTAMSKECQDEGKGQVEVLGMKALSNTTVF
Procedure: Materials. HEK293 cells were obtained from the American Type Culture collection and propagated per their instructions. Expression clones for rat and human NaP2b (SLC34A2) were obtained from Open Biosystems (Catalog numbers MRN1768-9510282, and MHS1010-99823026, respectively). The sequence of the human protein was mutated to insert a threonine after residue 37, and to introduce a N39D mutation.
Inhibition of Pi Transport. The rate of phosphate (Pi) uptake into HEK293 cells was measured using a modification of the method described by Mohrmann et al. (Mohrmann, I., Mohrmann, M., Biber, J., and Murer, H. (1986) Am. J. Phys. 250(3 Pt 1):G323-30.) Transfected HEK293 cells were treated with a pharmacological agent to minimize endogenous PiT-mediated phosphate transport activity, such that the only remaining sodium-dependent phosphate transport activity is that which was bestowed by introduction of the NaP2b genes.
Cells were seeded into 96-well plates at 25,000 cells/well and cultured overnight. Lipofectamine 2000 (Invitrogen) was used to introduce the NaP2b cDNA, and the cells were allowed to approach confluence during a second overnight incubation. […] Cells were then overlayed with either choline uptake buffer or sodium uptake buffer (14 mM Tris, 137 mM sodium chloride, 5.4 mM KCl, 2.8 mM CaCl2, 1.2 mM MgSO4, 100 uM KH2PO4, PiT-silencing agent, 1 mg/mL Bovine Serum Albumin, pH 7.4) containing 6-9 uCi/mL ^33P orthophosphoric acid (Perkin Elmer) and test compound. Each compound was tested at twelve concentrations ranging from 0.1 nM to 30 uM. Assays were run in duplicate.
After incubation for 3-30 minutes at room temperature, assay mixtures were removed, and the cells were washed twice with ice cold stop solution (137 mM sodium chloride, 14 mM Tris, pH 7.4). Cells were lysed by addition of 20 μL 0.1% Tween 80 followed by 100 μL scintillation fluid, and counted using a TopCount (Perkin Elmer).
pIC50 (the negative log of the IC50) values of the test compounds were calculated using GraphPad Prism.

Compound	% FA [1] [%]	IC50 (rat NaP2b (SLC34A2)) [µM]
OC[C@H]1O[C@@H](O[C@@H]2[C@@H](CO)OC(O)(CO)[C@H]2O)[C@H](O)[C@@H](O)[C@H]1O (mixture of isomers) [lactulose]	0.6	–
CN(CCN1CCOCC1)C(=O)c1cccc(C(=O)Nc2ccc(N3CCCCC3)cc2C(=O)Nc2ncn(-c3cccc(C(F)(F)F)c3)n2)c1 [Example 2, N1-Methyl-N1-(2-morpholinoethyl)-N3-(4-(piperidin-1-yl)-2-((1-(3-(trifluoromethyl)phenyl)-1H-1,2,4-triazol-3-yl)carbamoyl)phenyl)isophthalamide]	–	1 to 7.94
CN(CCN1CCOCC1)C(=O)c1cccc(C(=O)Nc2ccc(N3CCCCC3)cc2C(=O)Nc2nc(-c3cccc(C(F)(F)F)c3)cs2)c1 [Example 3, N1-Methyl-N1-(2-morpholinoethyl)-N3-(4-(piperidin-1-yl)-2-((4-(3-(trifluoromethyl)phenyl)thiazol-2-yl)carbamoyl)phenyl)isophthalamide]	–	< 1
Cc1ccc(-n2ccc(NC(=O)c3cc(Cl)ccc3NC(=O)c3cccc(CSCCC(=O)O)c3)n2)cc1C [Example 4, 3-((3-((4-Chloro-2-((1-(3,4-dimethylphenyl)-1H-pyrazol-3-yl)carbamoyl)phenyl)carbamoyl)benzyl)thio)propanoic acid]	–	1 to 7.94
Cc1ccc(-n2ccc(NC(=O)c3cc(N4CCCCC4)ccc3NC(=O)c3cccc(CSCCC(=O)O)c3)n2)cc1C [Example 5, 3-((3-((2-((1-(3,4-Dimethylphenyl)-1H-pyrazol-3-yl)carbamoyl)-4-(piperidin-1-yl)phenyl)carbamoyl)benzyl)thio)propanoic acid]	–	1 to 7.94
O=C(O)CCSCc1cccc(C(=O)Nc2ccc(Cl)cc2C(=O)Nc2ccn(-c3cccc(C(F)(F)F)c3)n2)c1 [Example 6, 3-((3-((4-Chloro-2-((1-(3-(trifluoromethyl)phenyl)-1H-pyrazol-3-yl)carbamoyl)phenyl)carbamoyl)benzyl)thio)propanoic acid]	–	1 to 7.94
CN(CCOCCOCCOCCC(=O)O)Cc1cccc(C(=O)Nc2ccc(N3CCCCC3)cc2C(=O)Nc2ccn(-c3cccc(C(F)(F)F)c3)n2)n1 [Example 8, 2-methyl-1-(6-((4-(piperidin-1-yl)-2-((1-(3-(trifluoromethyl)phenyl)-1H-pyrazol-3-yl)carbamoyl)phenyl)carbamoyl)pyridin-2-yl)-5,8,11-trioxa-2-azatetradecan-14-oic acid]	–	1 to 7.94
CCN(CC)CCN(C)Cc1ccc(C(=O)Nc2ccc(N3CCCCC3)cc2C(=O)Nc2ccn(-c3cccc(C(F)(F)F)c3)n2)cc1 [Example 9, 2-(4-(((2-(diethylamino)ethyl)(methyl)amino)methyl)benzamido)-5-(piperidin-1-yl)-N-(1-(3-(trifluoromethyl)phenyl)-1H-pyrazol-3-yl)benzamide]	–	10 to 31.6
O=C(NCCOCCO)c1cccc(C(=O)Nc2ccc(N3CCCCC3)cc2C(=O)Nc2cn(-c3cccc(C(F)(F)F)c3)cn2)c1 [Example 10, N1-(2-(2-Hydroxyethoxyl)ethyl)-N3-(4-(piperidin-1-yl)-2-((1-(3-(trifluoromethyl)phenyl)-1H-imidazol-4-yl)carbamoyl)phenyl)isophthalamide]	–	1 to 7.94
CCN(CC)CCN(C)Cc1cccc(C(=O)Nc2ccc(N3CCCCC3)cc2C(=O)Nc2ccn(-c3cccc(C(F)(F)F)c3)n2)c1 [Example 12, 2-(3-(((2-(Diethylamino)ethyl)(methyl)amino)methyl)benzamido)-5-(piperidin-1-yl)-N-(1-(3-(trifluoromethyl)phenyl)-1H-pyrazol-3-yl)benzamide]	–	10 to 31.6
O=C(NCCOCCO)c1cccc(C(=O)Nc2ccc(N3CCCCC3)cc2C(=O)Nc2ccn(-c3cccc(C(F)(F)F)c3)n2)c1 [Example 13, N1-(2-(2-Hydroxyethoxyl)ethyl)-N3-(4-(piperidin-1-yl)-2-((1-(3-(trifluoromethyl)phenyl)-1H-pyrazol-3-yl)carbamoyl)phenyl)isophthalamide]	–	1 to 7.94
COCCNC(=O)CCN(C)Cc1cccc(C(=O)Nc2ccc(N3CCCCC3)cc2C(=O)Nc2ccn(-c3cccc(C(F)(F)F)c3)n2)c1 [Example 16, 2-(3-(((3-((2-methoxyethyl)amino)-3-oxopropyl)(methyl)amino)methyl)-benzamido)-5-(piperidin-1-yl)-N-(1-(3-(trifluoromethyl)phenyl)-1H-pyrazol-3-yl)-benzamide]	–	1 to 7.94
O=C(O)c1ccc(SCc2cccc(C(=O)Nc3ccc(N4CCCCC4)cc3C(=O)Nc3ccn(-c4cccc(C(F)(F)F)c4)n3)c2)cc1 [Example 21, 4-((3-((4-(piperidin-1-yl)-2-((1-(3-(trifluoromethyl)phenyl)-1H-pyrazol-3-yl)carbamoyl)phenyl)carbamoyl)benzyl)thio)benzoic acid]	–	1 to 7.94
O=C(O)Cc1cccc(SCc2cccc(C(=O)Nc3ccc(Cl)cc3C(=O)Nc3ccn(-c4cccc(C(F)(F)F)c4)n3)c2)c1 [Example 24, 2-(3-((3-((4-chloro-2-((1-(3-(trifluoromethyl)phenyl)-1H-pyrazol-3-yl)-carbamoyl)phenyl)carbamoyl)benzyl)thio)phenyl)acetic acid]	–	< 1
C=CCc1ccccc1OCC(O)CNC(C)C (centres unmarked) [alprenolol]	96	–
O=C(O)P(=O)(O)O [foscarnet]	17	–
OC[C@@H](O)[C@@H](O)[C@H](O)[C@H](O)CO [mannitol]	26	–
Cc1ccccc1N1C(=O)c2cc(S(N)(=O)=O)c(Cl)cc2NC1C (centres unmarked) [metolazone]	64	–
O=C(O)c1cc(/N=N/c2ccc(O)c(C(=O)O)c2)ccc1O [olsalazine]	2.3	–
C=CCOc1ccccc1OCC(O)CNC(C)C (centres unmarked) [oxprenolol]	97	–
CC(C)NCC(O)COc1cccc2[nH]ccc12 (centres unmarked) [pindolol]	92	–
CC(=O)Nc1ccc(OCC(O)CNC(C)C)cc1 (centres unmarked) [practolol]	95	–
OC[C@H]1O[C@H](OC[C@H]2O[C@H](O[C@]3(CO)O[C@H](CO)[C@@H](O)[C@@H]3O)[C@H](O)[C@@H](O)[C@@H]2O)[C@H](O)[C@@H](O)[C@H]1O [raffinose]	0.3	–
O=C(O)c1cc(/N=N/c2ccc(S(=O)(=O)Nc3ccccn3)cc2)ccc1O [sulfasalazine]	12	–
CCN1CCCC1CNC(=O)c1cc(S(N)(=O)=O)ccc1OC (centres unmarked) [sulpiride]	36	–
NC[C@H]1CC[C@H](C(=O)O)CC1 [tranexamic acid]	55	–

Reference: patent publication US9289430B2, “Compounds and methods for inhibiting phosphate transport” (Ardelyx, Inc., priority 2010, dated 2016)
